Holding throughout (test): NCI-60 cell line screen, 48 h
Experiment [1] deals with 786-0 renal.
The test system of experiment [2] is COLO 205 colon.
Experiment [3] has as its system LOX IMVI melanoma.
Experiment [4] relates to M14 melanoma.
For experiment [5], the system named is MDA-MB-435.
Experiment [6] relates to SF-268 CNS.
Experiment [7] has as its system SNB-19 CNS.
Experiment [8] concerns T-47D breast.
Experiment [9] concerns BT-549 breast.
In experiment [10] the test system is DLD-1 colon.
Experiment [11] deals with M19-MEL melanoma.
In experiment [12] the test system is SNB-78 CNS.

Several values for one entry are separate records, joined by “and”; a condition that tells them apart may be missing. Equal values may be shown once.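 Dose response: 5 concentrations. Exposure: 48 h. Format: 96-well plates. Endpoint: linear interpolation; highest concentration if not reached. GI50 = concentration required for 50% inhibition of growth. TGI denotes the concentration required for complete inhibition of growth.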

For the molecule `C/C(=C\CNc1ncnc2nc(Cl)[nH]c12)CO`, the TGI in experiment [1], in experiment [2], in experiment [3], in experiment [4], in experiment [5] and in [6] was more than 100 µM in each case. In addition, the TGI in [7] and in experiment [8] was more than 100 µM in each case.
With `O=P(O)(O)OP(=O)(O)O`, the TGI in [1], in experiment [9], in experiment [2], in experiment [3], in experiment [4] and in [5] was more than 100 µM in each case. Besides, the TGI in [6], in experiment [7] and in experiment [8] was more than 100 µM throughout.
`COC(=O)c1c(O)ccc2c1c1c(n2Cc2ccccn2)C(=O)c2ccccc2C1`: the TGI was more than 100 µM in experiment [1]; more than 100 µM in experiment [9]; 28.5 µM in experiment [2]; more than 100 µM in experiment [3]; more than 100 µM in experiment [4]; more than 100 µM in experiment [5]. Also, the TGI in [6] and in [7] was more than 100 µM throughout.
Take `Fc1cc(C2=C[C@H](c3ccc4c(c3)OCO4)NC(=S)N2)c(Cl)cc1Cl`: the TGI was more than 100 µM in experiment [1]; more than 100 µM in [9]; 50.3 µM in [2]; more than 100 µM in [3]; more than 100 µM in experiment [4]; more than 100 µM in [5]. Further, the TGI in experiment [6], in experiment [7] and in experiment [8] was more than 100 µM in each case.
On to `Clc1ccc(NCc2nnc(COc3ccc(OCc4nnc(CNc5ccc(Cl)cc5)o4)c(Cl)c3)o2)cc1`, for which the TGI in [1] was more than 100 µM; in [9], more than 100 µM; in experiment [2], 25.9 µM; in [3], more than 100 µM; in experiment [4], more than 100 µM; in experiment [5], more than 100 µM. In addition, the TGI in experiment [6], in [7] and in experiment [8] was more than 100 µM throughout.
On to `CCOC(=O)C(C)OC(=O)c1ccc(C)cc1` (configuration not stated), for which the TGI in experiment [2], in experiment [10], in experiment [3], in experiment [4], in experiment [11] and in [6] was more than 100 µM throughout. Further, the TGI in [7] and in [12] was more than 100 µM in each case.
Take `CN(C)C/C=C(/c1ccc(Br)cc1)c1cccnc1`: the TGI in experiment [1] is more than 100 µM; in experiment [9] it was more than 100 µM; in [2] it was 32.4 µM; in experiment [4], 37.2 µM; in experiment [5], more than 100 µM; in experiment [6], more than 100 µM. The TGI in experiment [7] and in experiment [8] was more than 100 µM throughout.
`CCCCCCOC(=O)C(N)Cc1ccc(OC)cc1` (configuration not stated): the TGI in experiment [1], in experiment [9], in experiment [2], in experiment [3], in [4] and in experiment [5] was more than 100 µM each time. Also, the TGI in experiment [6], in experiment [7] and in [8] was more than 100 µM throughout.
For `O=C(N/N=C\c1ccc([N+](=O)[O-])cc1)Nc1ccccc1`, the TGI in experiment [9], in experiment [2], in [4], in experiment [5], in experiment [7] and in experiment [8] was more than 100 µM throughout.
As to `NC(CCc1ccccc1)(C(=O)O)c1ccccc1` (configuration not stated), the TGI in experiment [1], in [9], in experiment [3], in [4], in experiment [5] and in [6] was more than 100 µM in each case. Further, the TGI in experiment [7] and in experiment [8] was more than 100 µM each time.
As to `O=c1oc2c(ccc3occc32)c(N2CCCCC2)c1-c1ccccc1`, the TGI in experiment [2], in experiment [10], in experiment [3], in experiment [11], in [6] and in experiment [7] was more than 100 µM in each case. The TGI in experiment [12] was more than 100 µM.
Take `C[C@H](Nc1ccc(C#N)n(C)c1=O)c1cc2cc(Cl)ccc2[nH]c1=O`: the GI50 in experiment [9] is 12.2 µM; in experiment [2], 19 µM; in [3] it was 33.1 µM; in experiment [4], 23.7 µM; in experiment [5] it was 28.6 µM; in experiment [6] it was 22.7 µM. Besides, the GI50 in [7] was 32.5 µM; in [8], 17.3 µM. Besides, the TGI in experiment [9] was 70.1 µM; in experiment [2] it was 40.2 µM; in experiment [3], more than 100 µM; in [4], more than 100 µM; in experiment [5] it was 88.7 µM; in [6], more than 100 µM. The TGI in experiment [7] was more than 100 µM; in experiment [8] it was 94.4 µM.
As for `CC(Br)C(=O)c1ccc2cc(Br)c3ccccc3c2c1` (configuration not stated), the TGI in experiment [1] was determined as 11.7 µM; in [9], 28.7 µM; in [3], 20.4 µM; in [4] it was 31 µM; in experiment [5], 29.9 µM; in experiment [6], 32.4 µM. For the same molecule, the figures for the TGI in experiment [7] and in experiment [8] were 32.7 µM and 30.5 µM, respectively.
For the molecule `NCCCCN`, the TGI is more than 100 µM in experiment [1]; more than 100 µM in experiment [9]; more than 100 µM in [2]; more than 100 µM in experiment [3]; more than 100 µM in experiment [4]; 31.4 µM in experiment [5]. In addition, the TGI in [6], in experiment [7] and in experiment [8] was more than 100 µM in each case.
Take `CCOC(=O)C(=CNC(Cc1c[nH]c2ccccc12)C(=O)OC)C(=O)OCC` (configuration not stated): the TGI in experiment [2], in experiment [10], in experiment [3], in experiment [4], in experiment [11] and in experiment [6] was more than 100 µM in each case. For the same molecule, the TGI in experiment [7] and in [12] was more than 100 µM each time.
Turning to `CC(C)(C)c1ccc(O)c(Br)c1`, the TGI in experiment [1], in experiment [9], in [2], in [3], in [4] and in [5] was more than 100 µM throughout. The TGI in [6], in [7] and in experiment [8] was more than 100 µM throughout.
On to `CC(C)(C)OC(=O)N1C(C2=COc3ccccc3O2)=COc2cccnc21`, for which the TGI amounted to 3.66 µM in [1]; 5.42 µM in [9]; 3.64 µM in [2]; 3.36 µM in experiment [3]; 3.65 µM in experiment [4]; 3.67 µM in experiment [5]. Besides, the TGI was found to be 3.93 µM in experiment [6] and 3.45 µM in experiment [8].
In the case of `O=C(CSc1nc2ccc(Cl)cc2c(=O)n1-c1ccccc1)N=Nc1c(O)[nH]c2ccc(F)cc12`, the TGI stood at 4.45 µM in experiment [1]; 4.11 µM in experiment [9]; 4.81 µM in [2]; 3.22 µM in experiment [3]; 11 µM in experiment [4]; 5.69 µM in experiment [5]. In addition, the TGI in experiment [6] was 8.83 µM; in experiment [7] it was 10.5 µM; in [8], 4.8 µM.
With `Cc1cc(N2CCOCC2)nc(N(CCCNc2ccnc3cc(Cl)ccc23)Cc2ccc3c(c2)OCO3)n1`, the GI50 in [4] is 1.4 µM; in experiment [7] it was 4.18 µM; in experiment [8], 1.41 µM. In addition, the TGI was determined as 2.73 µM in experiment [4], 35.7 µM in experiment [7] and 3.93 µM in experiment [8].
Regarding `Cc1cc(O)c2c(c1O)C(=O)c1c(O)ccc(O)c1C2=O`, the TGI in experiment [1], in experiment [9], in experiment [2], in [3], in experiment [4] and in [5] was more than 100 µM throughout. The TGI in experiment [6], in experiment [7] and in [8] was more than 100 µM throughout.
Regarding `NC(N)=NS(=O)(=O)c1ccc(Nc2c3ccccc3nc3c(C(=O)N4CCN(CCO)CC4)ccc(Cl)c23)cc1`, the TGI in [2], in experiment [10], in experiment [4], in experiment [11], in [6] and in experiment [7] was more than 100 µM each time. The molecule also showed a TGI in [12] of more than 100 µM.
Take `COC1OC(C(=O)CP(=O)(OC)OC)C(OCc2ccccc2)C(OCc2ccccc2)C1OCc1ccccc1` (configuration not stated): the TGI in [1] is 31.3 µM and 31.4 µM; in experiment [9], 32 µM and 33.8 µM; in experiment [2], 32.7 µM and 33.5 µM; in [3] it was 33.1 µM and 32.6 µM; in experiment [4] it was 28.8 µM and 30.4 µM; in experiment [5], 31.8 µM and 35.9 µM. Moreover, the TGI in [6] is 37.9 µM and 33.5 µM; in experiment [7], 29.7 µM and 30.3 µM; in experiment [8] it was 39.6 µM and 43.7 µM.

Values taken from PubChem BioAssay (NCI).
